Assay results reported in patent US20250271426A1, “REDUCTION OF BITTER TASTE OF ACTIVE PHARMACEUTICAL INGREDIENTS AND RELATED ASSAYS AND SCREENING METHODS” (Firmenich Incorporated, priority 2022, published 2025).

Legend:
Assay in all cases: FLIPR calcium assay, cells with promiscuous G protein transfected with bitter receptor cDNA
Format in all cases: cell-based
Conditions in all cases: responsive if cellular response of >10% over baseline, Fluo4-AM
[1] = target: T1, T2R receptor SEQ ID NO: 3 (S3) (Homo sapiens, UniProt Q9NYW0, T156M)
T1 construct: expressed in transfected cells; host or cells: cells expressing a promiscuous G protein (e.g., G16g44)
T1 sequence (Q9NYW0 1-307 T156M): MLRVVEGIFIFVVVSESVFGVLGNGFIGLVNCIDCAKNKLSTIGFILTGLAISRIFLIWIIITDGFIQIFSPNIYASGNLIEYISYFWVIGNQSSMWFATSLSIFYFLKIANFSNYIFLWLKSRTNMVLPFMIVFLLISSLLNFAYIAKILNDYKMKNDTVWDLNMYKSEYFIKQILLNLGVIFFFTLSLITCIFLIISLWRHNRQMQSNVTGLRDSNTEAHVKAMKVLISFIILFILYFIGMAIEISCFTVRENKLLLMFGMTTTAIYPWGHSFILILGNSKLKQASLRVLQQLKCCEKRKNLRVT
Procedure, shortened: (§1)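 Transfect G16g44-expressing cells, one T2R per well; incubate 28 h. Load Fluo4-AM 60 min, wash. Stimulate with bitter agonist, record Ca fluorescence on FLIPR. Hit = >10% over baseline.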

[2] = target: T2, T2R receptor SEQ ID NO: 1 (S1) (Homo sapiens, UniProt Q9NYW7)
T2 construct: expressed in transfected cells; host or cells: cells expressing a promiscuous G protein (e.g., G16g44)
T2 sequence (Q9NYW7 1-299): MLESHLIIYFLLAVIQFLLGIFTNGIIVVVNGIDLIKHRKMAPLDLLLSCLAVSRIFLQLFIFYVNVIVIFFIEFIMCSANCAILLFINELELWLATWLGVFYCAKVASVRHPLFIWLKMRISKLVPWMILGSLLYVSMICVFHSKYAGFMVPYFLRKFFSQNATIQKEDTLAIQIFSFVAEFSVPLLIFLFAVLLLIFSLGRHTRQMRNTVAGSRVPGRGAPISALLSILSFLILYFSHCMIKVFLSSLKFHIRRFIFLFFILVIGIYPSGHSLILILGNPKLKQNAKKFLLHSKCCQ
Procedure, shortened: as §1

[3] = target: T3, T2R receptor SEQ ID NO: 5 (S5) (Homo sapiens, UniProt P59534)
T3 construct: expressed in transfected cells; host or cells: cells expressing a promiscuous G protein (e.g., G16g44)
T3 sequence (P59534 18-338): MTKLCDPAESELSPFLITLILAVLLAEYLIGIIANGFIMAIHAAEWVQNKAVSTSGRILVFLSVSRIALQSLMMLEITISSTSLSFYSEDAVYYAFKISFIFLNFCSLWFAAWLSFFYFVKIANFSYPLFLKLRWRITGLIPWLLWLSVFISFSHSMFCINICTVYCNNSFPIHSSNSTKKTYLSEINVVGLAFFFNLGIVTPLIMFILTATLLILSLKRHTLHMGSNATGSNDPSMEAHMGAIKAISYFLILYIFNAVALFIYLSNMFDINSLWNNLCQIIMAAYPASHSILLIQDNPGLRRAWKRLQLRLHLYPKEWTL
Procedure, shortened: as §1

[4] = target: T4, T2R receptor SEQ ID NO: 6 (S6) (Homo sapiens, UniProt P59540)
T4 construct: expressed in transfected cells; host or cells: cells expressing a promiscuous G protein (e.g., G16g44)
T4 sequence (P59540 1-309): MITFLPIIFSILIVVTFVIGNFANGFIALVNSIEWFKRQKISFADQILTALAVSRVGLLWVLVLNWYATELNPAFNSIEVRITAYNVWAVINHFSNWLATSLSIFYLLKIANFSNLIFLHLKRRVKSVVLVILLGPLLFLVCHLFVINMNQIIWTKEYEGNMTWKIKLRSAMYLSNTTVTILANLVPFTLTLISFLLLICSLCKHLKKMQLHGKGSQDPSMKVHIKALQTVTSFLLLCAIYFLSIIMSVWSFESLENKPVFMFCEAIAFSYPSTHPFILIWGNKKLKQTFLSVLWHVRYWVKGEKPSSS
Procedure, shortened: as §1

[5] = target: T5, T2R receptor SEQ ID NO: 2 (S2) (Homo sapiens, UniProt Q9NYW2)
T5 construct: expressed in transfected cells; host or cells: cells expressing a promiscuous G protein (e.g., G16g44)
T5 sequence (Q9NYW2 1-309): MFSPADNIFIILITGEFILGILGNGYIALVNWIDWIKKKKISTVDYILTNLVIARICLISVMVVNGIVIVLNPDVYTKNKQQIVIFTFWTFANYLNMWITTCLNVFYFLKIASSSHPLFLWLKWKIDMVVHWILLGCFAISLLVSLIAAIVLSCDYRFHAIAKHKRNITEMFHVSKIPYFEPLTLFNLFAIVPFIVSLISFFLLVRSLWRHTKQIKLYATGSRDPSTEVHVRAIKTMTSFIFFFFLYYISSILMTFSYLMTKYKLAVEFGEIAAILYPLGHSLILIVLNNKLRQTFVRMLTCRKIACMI
Procedure, shortened: as §1

[6] = target: T6, T2R receptor SEQ ID NO: 4 (S4) (Homo sapiens, UniProt Q9NYV8)
T6 construct: expressed in transfected cells; host or cells: cells expressing a promiscuous G protein (e.g., G16g44)
T6 sequence (Q9NYV8 1-317): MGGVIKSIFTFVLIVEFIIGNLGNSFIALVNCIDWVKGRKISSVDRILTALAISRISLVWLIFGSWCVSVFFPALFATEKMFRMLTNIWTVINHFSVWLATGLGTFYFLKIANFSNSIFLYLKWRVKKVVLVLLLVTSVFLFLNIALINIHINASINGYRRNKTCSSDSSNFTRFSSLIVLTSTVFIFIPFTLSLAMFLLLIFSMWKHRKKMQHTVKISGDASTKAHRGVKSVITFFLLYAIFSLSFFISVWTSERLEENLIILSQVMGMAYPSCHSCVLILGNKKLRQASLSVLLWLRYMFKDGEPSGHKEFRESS
Procedure, shortened: as §1

| Compound | S3 positive response of T2R receptor to API [1] | S1 positive response of T2R receptor to API [2] | S5 positive response of T2R receptor to API [3] | S6 positive response of T2R receptor to API [4] | S2 positive response of T2R receptor to API [5] | S4 positive response of T2R receptor to API [6] |
| --- | --- | --- | --- | --- | --- | --- |
| CC[N+](C)(CC)CCOC(=O)C(O)(c1ccccc1)C1CCCCC1 (centres unmarked) [Oxyphenonium] | + (a “+” to indicate whether a particular T2R receptor showed a positive response to a particular API) | + (a “+” to indicate whether a particular T2R receptor showed a positive response to a particular API) | + (a “+” to indicate whether a particular T2R receptor showed a positive response to a particular API) | + (a “+” to indicate whether a particular T2R receptor showed a positive response to a particular API) | + (a “+” to indicate whether a particular T2R receptor showed a positive response to a particular API) |  |
| CCC[C@@H]1C[C@@H](C(=O)N[C@@H]([C@H]2O[C@H](SC)[C@H](O)[C@@H](O)[C@H]2O)[C@H](C)Cl)N(C)C1 [Clinamycin] | + (a “+” to indicate whether a particular T2R receptor showed a positive response to a particular API) |  | + (a “+” to indicate whether a particular T2R receptor showed a positive response to a particular API) |  | + (a “+” to indicate whether a particular T2R receptor showed a positive response to a particular API) | + (a “+” to indicate whether a particular T2R receptor showed a positive response to a particular API) |
| CN(C)CCC=C1c2ccccc2COc2ccccc21 [Doxepin] | + (a “+” to indicate whether a particular T2R receptor showed a positive response to a particular API) | + (a “+” to indicate whether a particular T2R receptor showed a positive response to a particular API) | + (a “+” to indicate whether a particular T2R receptor showed a positive response to a particular API) | + (a “+” to indicate whether a particular T2R receptor showed a positive response to a particular API) | + (a “+” to indicate whether a particular T2R receptor showed a positive response to a particular API) | + (a “+” to indicate whether a particular T2R receptor showed a positive response to a particular API) |
| CN(C)CCOC(c1ccccc1)c1ccccc1 [Diphenhydramine] | + (a “+” to indicate whether a particular T2R receptor showed a positive response to a particular API) | + (a “+” to indicate whether a particular T2R receptor showed a positive response to a particular API) | + (a “+” to indicate whether a particular T2R receptor showed a positive response to a particular API) | + (a “+” to indicate whether a particular T2R receptor showed a positive response to a particular API) | + (a “+” to indicate whether a particular T2R receptor showed a positive response to a particular API) | + (a “+” to indicate whether a particular T2R receptor showed a positive response to a particular API) |
| NC(N)=Nc1nc(CSCCC(N)=NS(N)(=O)=O)cs1 [Famotidine] | + (a “+” to indicate whether a particular T2R receptor showed a positive response to a particular API) | + (a “+” to indicate whether a particular T2R receptor showed a positive response to a particular API) | + (a “+” to indicate whether a particular T2R receptor showed a positive response to a particular API) | + (a “+” to indicate whether a particular T2R receptor showed a positive response to a particular API) | + (a “+” to indicate whether a particular T2R receptor showed a positive response to a particular API) |  |
| O=C(N[C@H](CO)[C@H](O)c1ccc([N+](=O)[O-])cc1)C(Cl)Cl [Chloramphenicol] | + (a “+” to indicate whether a particular T2R receptor showed a positive response to a particular API) | + (a “+” to indicate whether a particular T2R receptor showed a positive response to a particular API) | + (a “+” to indicate whether a particular T2R receptor showed a positive response to a particular API) | + (a “+” to indicate whether a particular T2R receptor showed a positive response to a particular API) | + (a “+” to indicate whether a particular T2R receptor showed a positive response to a particular API) |  |
| CCOC(=O)[C@H](CCc1ccccc1)N[C@@H](C)C(=O)N1CCC[C@H]1C(=O)O [Enalapril] |  | + (a “+” to indicate whether a particular T2R receptor showed a positive response to a particular API) | + (a “+” to indicate whether a particular T2R receptor showed a positive response to a particular API) | + (a “+” to indicate whether a particular T2R receptor showed a positive response to a particular API) | + (a “+” to indicate whether a particular T2R receptor showed a positive response to a particular API) | + (a “+” to indicate whether a particular T2R receptor showed a positive response to a particular API) |
| COc1ccccc1OCC(O)CO (centres unmarked) [Guaifenesin] | + (a “+” to indicate whether a particular T2R receptor showed a positive response to a particular API) | + (a “+” to indicate whether a particular T2R receptor showed a positive response to a particular API) | + (a “+” to indicate whether a particular T2R receptor showed a positive response to a particular API) |  | + (a “+” to indicate whether a particular T2R receptor showed a positive response to a particular API) | + (a “+” to indicate whether a particular T2R receptor showed a positive response to a particular API) |
